In data set [1] the test system is histamine-induced bronchoconstriction in the guinea pig. The data set can be described thus: BD: bronchodilator activity against histamine-induced bronchoconstriction in the guinea pig. The following applies: for inhibition in vivo at 10 mg/kg / inhibition in vivo at 20 mg/kg / inhibition in vivo at 40 mg/kg / inhibition in vivo at 80 mg/kg / inhibition in vivo at 15 mg/kg / inhibition in vivo at 150 mg/kg / inhibition in vivo at 100 mg/kg / inhibition in vivo at 60 mg/kg: Cavia porcellus, po, read-out: BD (guinea pig), % protection; for lethal / bronchodilator effectiveness, in words / onset and duration of action, in words: guinea pig; for bronchodilator effectiveness, in words / onset and duration of action, in words: comparison with corresponding compound. The source says: BD Bronchodilator activity evaluated against histamine-induced bronchoconstriction in the guinea pig, and expressed as % protection at the stated time interval (in minutes and hours) post-drug against histamine agonist. Doses are expressed in milligrams per kilogram of body weight (mpk) per os (po) or intraperitoneally (ip).
A modification of the method of Siegmund. O.H., et al., J. Pharmacol. and Exp. Therap. 90:254-9, 1947, is used. Healthy guinea pigs weighing from 250 to 300 grams are placed four at a time and separated by wiring screening in an 11 liter plastic chamber, at the time of peak activity following drug administration. The challenge consists of histamine diphosphate (1% solution) aerosolized in a de Vilbiss -40 nebulizer at 200 mm Hg. Times for prostration are recorded.
Per cent protection is calculated as follows: [formula] wherein the times are measured in seconds.
In interpreting the BD data it should be noted that a dose giving less than 40-50% protection is not considered useful. Differences in percent protection of less than 10% are probably not significant.

Data set [2] concerns antigen-induced bronchconstriction in rats sensitized with N. brasliensis. The data set can be described thus: AA: antiallergy (anti-anaphylactic) activity against antigen-induced bronchoconstriction in sensitized rats.
Description: The animals are subdivided into control and test groups. Test animals receive a drug either orally, intraperitoneally or intravenously and are challenged with intravenous antigen at fixed time intervals after dosing. Antigen-induced increases in tracheal pressure are monitored and reflect the extent of bronchoconstriction.
In data set [3] the test system is guinea pig tracheal chain preparation. As to the kind of experiment: SP: spasmolytic activity in vitro, guinea pig tracheal chain preparation. To be noted: Cavia porcellus, read-out: SP in vitro C, molar concentration required to produce maximum relaxation. An excerpt:
SP Spasmolytic activity evaluated in vitro using guinea pig tracheal chain preparation, and expressed as the molar (M) concentration required to produce maximum relaxation. The method used in that of Castillo and de Beer, J. Pharmac. Expt. Therap. 90, 104, 1947.

[4] abbreviates: Rattus norvegicus, ip, 1 h, read-out: AA (rat), % protection.

Here are results for 15 compounds from patent publication US4120947A, “Xanthine compounds and method of treating bronchospastic and allergic diseases” (priority 1976, dated 1978).

Read-outs that look alike come from different tables or passages of the source.

Regarding `CCOC(=O)n1c(C)nc2c1c(=O)n(C)c(=O)n2CC(C)CC` (racemic) [Compound 4477, DL-1,8-dimethyl-3-(2-methyl-1-butyl)xanthine-7-carboxylic acid, ethyl ester], the values for the inhibition in vivo at 10 mg/kg in data set [1] (0.5 h), in data set [1] (1 h) and in data set [1] (6 h) were 47%, 87% and 50%, respectively.
`CCCOC(=O)n1c(C)nc2c1c(=O)n(C)c(=O)n2CC(C)CC` (racemic) [Compound 4488, DL-1,8-dimethyl-3-(2-methyl-1-butyl)xanthine-7-carboxylic acid, n-propyl ester]: in data set [1] (1 h), the inhibition in vivo at 10 mg/kg came to 24%, the inhibition in vivo at 20 mg/kg was determined as 78% and the inhibition in vivo at 40 mg/kg worked out at 100%. In addition, in data set [1] (6 h), the inhibition in vivo at 10 mg/kg came to 44%, the inhibition in vivo at 20 mg/kg came to 68% and the inhibition in vivo at 40 mg/kg came out at 89%. For the same compound, in data set [1] (80 mpK po), the lethal was 1/4.
On to `CCc1nc2c(c(=O)n(C)c(=O)n2CC(C)CC)n1C(=O)OC` (racemic) [Compound 4491, DL-1-methyl-3-(2-methyl-1-butyl)-8-ethyl-xanthine-7-carboxylic acid, methyl ester], for which, in data set [1] (1 h), the inhibition in vivo at 10 mg/kg came to 25% and the inhibition in vivo at 40 mg/kg was found to be 52%.
`CCC(C)Cn1c(=O)n(CC)c(=O)c2c1nc(C)n2C(=O)OC` (racemic) [Compound 4494, DL-1-ethyl-3-(2-methyl-1-butyl)-8-methylxanthine-7-carboxylic acid, methyl ester]: the inhibition in vivo at 10 mg/kg in data set [1] (1 h) was determined as 0%; in data set [1] (6 h), 49%. The inhibition in vivo at 40 mg/kg in data set [1] (1 h) stood at 9%; in data set [1] (6 h), 80%. Also, the lethal in data set [1] (80 mpK po) is given as 2/2.
With `CCc1nc2c(c(=O)n(CC)c(=O)n2CC(C)CC)n1C(=O)OC` (racemic) [Compound 4498, DL-1,8-diethyl-3-(2-methyl-1-butyl)xanthine-7-carboxylic acid, methyl ester], in data set [1] (1 h), the inhibition in vivo at 40 mg/kg was 15% and the inhibition in vivo at 80 mg/kg came to 63%. In data set [1] (6 h), the inhibition in vivo at 40 mg/kg worked out at 38% and the inhibition in vivo at 80 mg/kg came out at 79%.
With `CCCC(C)Cn1c(=O)n(C)c(=O)c2c1nc(C)n2C(=O)OC` (racemic) [Compound 4515, DL-1,8-dimethyl-3-(2-methyl-1-pentyl)xanthine-7-carboxylic acid, methyl ester], in data set [1] (1 h), the inhibition in vivo at 20 mg/kg turned out to be 7% and the inhibition in vivo at 40 mg/kg amounted to 100%.
For the compound `CC(C)Cn1c(=O)n(C)c(=O)c2[nH]cnc21` [Compound 4258, 1-methyl-3-(isobutyl)xanthine], the “AA (rat), toxicity” value in data set [2] (2.0 mpK ip, 1h) was “tox”. The inhibition in vivo at […] in data set [2] (setting [4]) amounted to 79%. For the same compound, the inhibition in vivo at 15 mg/kg in data set [1] (0.5 h) worked out at 45%; in data set [1] (1 h), 75%. The lethal in data set [1] (25 mpK po) is given as 2/4.
`COC(=O)n1cnc2c1c(=O)n(C)c(=O)n2C` [Compound 4260, 1,3-dimethylxanthine-7-carboxylic ester, methyl ester]: the inhibition in vivo at 75 mg/kg in data set [2] (setting [4]) was 82%. Also, the EC (maximum relaxation) in data set [3] is 50000 µM. Further, the inhibition in vivo at 80 mg/kg in data set [1] (0.5 h) was 99%; in data set [1] (1 h), 100%; in data set [1] (2 h) it was 86%; in data set [1] (4 h), 95%; in data set [1] (6 h) it was 0%. Also, the “bronchodilator effectiveness, in words” value in data set [1] is “clearly superior to theophylline at the same dose (80 mpK)”; in data set [1] (listed as 1,3-dimethyl-7-carbomethoxyxanthine), “significantly more effective than theophylline itself”. Moreover, the “onset and duration of action, in words” value in data set [1] was “more potent, with both faster onset and longer duration of action”.
In the case of `COC(=O)n1cnc2c1c(=O)n(C)c(=O)n2CC(C)C` [Compound 4274, 1-methyl-3-(isobutyl)xanthine-7-carboxylic acid, methyl ester], the inhibition in vivo at 5 mg/kg in data set [2] (setting [4]) was determined as 74%. In addition, the EC (maximum relaxation) in data set [3] is 500 µM. The inhibition in vivo at 15 mg/kg stood at 92% in data set [1] (0.5 h), 87% in data set [1] (1 h), 64% in data set [1] (2 h) and 18% in data set [1] (4 h). In addition, the lethal in data set [1] (40 mpK po) was 1/6. Moreover, in data set [1], the “bronchodilator effectiveness, in words” value is “greater protection than 4258 at equal doses”.
With `Cc1nc2c([nH]1)c(=O)n(C)c(=O)n2C` [Compound 4296, 1,3,8-trimethylxanthine], the inhibition in vivo at 75 mg/kg in data set [2] (setting [4]) was 49%. Moreover, the inhibition in vivo at 150 mg/kg is 68% in data set [1] (0.5 h); 80% in data set [1] (1 h); 71% in data set [1] (2 h); 79% in data set [1] (4 h); 86% in data set [1] (6 h); 85% in data set [1] (10 h). Besides, the inhibition in vivo at 100 mg/kg in data set [1] (1 h) is 53%; in data set [1] (4 h) it was 45%; in data set [1] (6 h) it was 43%; in data set [1] (10 h) it was 23%.
As to `CCCC(C)Cn1c(=O)n(C)c(=O)c2c1ncn2C(=O)OC` (stereo not shown) [Compound 4377], in data set [1] (1 h), the inhibition in vivo at 20 mg/kg was determined as 64% and the inhibition in vivo at 80 mg/kg was determined as 72%. Also, the inhibition in vivo at 80 mg/kg in data set [1] (4 h) was 0%.
`COC(=O)n1c(C)nc2c1c(=O)n(C)c(=O)n2C` [Compound 4378, 1,3,8-trimethylxanthine-7-carboxylic acid, methyl ester]: the inhibition in vivo at 75 mg/kg in data set [2] (setting [4]) is 54%. Also, the EC (maximum relaxation) in data set [3] is 100000 µM. Further, the inhibition in vivo at 60 mg/kg in data set [1] (1 h) stood at 96%; in data set [1] (4 h) it was 95%; in data set [1] (6 h), 89%. Further, the “onset and duration of action, in words” value in data set [1] is “effective at lower doses and for longer duration”.
Take `CCC(C)Cn1c(=O)n(C)c(=O)c2c1ncn2C(=O)OC` (stereo not shown) [Compound 4380, 1-methyl-3-(2-methyl-1-butyl)xanthine-7-carboxylic acid, methyl ester]: in data set [2] (Rattus norvegicus, po, 1 h, read-out: AA (rat), % protection), the inhibition in vivo at 5 mg/kg was 66%. The EC (maximum relaxation) in data set [3] came out at 1430 µM. Moreover, the “BD (guinea pig), % protection” value in data set [1] (20 mpK po, 1h) is reported as 64%. In addition, the inhibition in vivo at 20 mg/kg in data set [1] (1 h) is 64%. The inhibition in vivo at 40 mg/kg in data set [1] (1 h) is 99%; in data set [1] (4 h) it was 57%; in data set [1] (6 h), 12%.
`COC(=O)n1c(C)nc2c1c(=O)n(C)c(=O)n2CCC(C)C` [Compound 4505, 1,8-dimethyl-3-isopentylxanthine-7-carboxylic acid, methyl ester]: the lethal in data set [1] (80 mpK po) is given as 3/5.
For `CCCCCn1c(=O)n(C)c(=O)c2c1nc(C)n2C(=O)OC` [Compound 4507, 1,8-dimethyl-3-n-pentylxanthine-7-carboxylic acid, methyl ester], in data set [1] (1 h), the inhibition in vivo at 10 mg/kg was 26%, the inhibition in vivo at 20 mg/kg was 52% and the inhibition in vivo at 40 mg/kg came out at 100%. Moreover, in data set [1] (6 h), the inhibition in vivo at 40 mg/kg worked out at 63%. For the same compound, the lethal in data set [1] (80 mpK po) is reported as 2/2.
